Where two headings read alike, the source gives them in different places.
Columns and labels:
[1] = test system: cellular H3K36me2 level in multiple myeloma cell line KMS11 (t(4;14)+); assay: H3K36me2 cellular ELISA assay in KMS11-Par line; format: cell-based; conditions: Homo sapiens, KMS-11; KMS11-Par line, ELISA, 72 hours; read-out: H3K36me2 ELISA in KMS11-Par
In short: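 After 72 h compound exposure, HCl-extracted histones from KMS11 (t(4;14)+) cells were probed by ELISA for H3K36me2 against total H3 with a chemiluminescence read-out. Cells were plated at 1,250/well in Opti-MEM plus B-27 and N2 the day before. A parallel CellTiter-Glo plate tracked viability.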

NSD2 [1-1365] = NSD2 [1-1365] (Homo sapiens (Human), UniProt O96028); assay: LC-MS/MS-based NSD2 enzymatic assay (SAH production); format: biochemical
In short: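 SAH formed was measured by LC-MS/MS using d4-SAH as internal standard and an SAH calibration curve. Compounds were preincubated 20 min with NSD2 [1-1365] and SAM; mouse-liver nucleosome then started a 90 min room-temperature reaction (8 nM enzyme, 1 μM SAM, 400 nM nucleosome final, pH 8.0), stopped with TFA.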

[2] = test system: cellular H3K36me2 level in thyroid carcinoma cell line CGTH-W-1 (NSD2 E1099K); assay: H3K36me2 cellular ELISA assay in CGTH-W-1 line; format: cell-based; conditions: Homo sapiens, CGTH-W-1, 72 h, read-out: H3K36me2 ELISA in CGTH-W-1
In short: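 After 72 h compound treatment of NSD2 E1099K-mutant CGTH-W-1 cells, H3K36me2 and total H3 were quantified by ELISA with chemiluminescent read-out. A parallel-seeded plate gave cell viability by CellTiter-Glo.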

NSD2 [1-1365], sequence (O96028 whole entry): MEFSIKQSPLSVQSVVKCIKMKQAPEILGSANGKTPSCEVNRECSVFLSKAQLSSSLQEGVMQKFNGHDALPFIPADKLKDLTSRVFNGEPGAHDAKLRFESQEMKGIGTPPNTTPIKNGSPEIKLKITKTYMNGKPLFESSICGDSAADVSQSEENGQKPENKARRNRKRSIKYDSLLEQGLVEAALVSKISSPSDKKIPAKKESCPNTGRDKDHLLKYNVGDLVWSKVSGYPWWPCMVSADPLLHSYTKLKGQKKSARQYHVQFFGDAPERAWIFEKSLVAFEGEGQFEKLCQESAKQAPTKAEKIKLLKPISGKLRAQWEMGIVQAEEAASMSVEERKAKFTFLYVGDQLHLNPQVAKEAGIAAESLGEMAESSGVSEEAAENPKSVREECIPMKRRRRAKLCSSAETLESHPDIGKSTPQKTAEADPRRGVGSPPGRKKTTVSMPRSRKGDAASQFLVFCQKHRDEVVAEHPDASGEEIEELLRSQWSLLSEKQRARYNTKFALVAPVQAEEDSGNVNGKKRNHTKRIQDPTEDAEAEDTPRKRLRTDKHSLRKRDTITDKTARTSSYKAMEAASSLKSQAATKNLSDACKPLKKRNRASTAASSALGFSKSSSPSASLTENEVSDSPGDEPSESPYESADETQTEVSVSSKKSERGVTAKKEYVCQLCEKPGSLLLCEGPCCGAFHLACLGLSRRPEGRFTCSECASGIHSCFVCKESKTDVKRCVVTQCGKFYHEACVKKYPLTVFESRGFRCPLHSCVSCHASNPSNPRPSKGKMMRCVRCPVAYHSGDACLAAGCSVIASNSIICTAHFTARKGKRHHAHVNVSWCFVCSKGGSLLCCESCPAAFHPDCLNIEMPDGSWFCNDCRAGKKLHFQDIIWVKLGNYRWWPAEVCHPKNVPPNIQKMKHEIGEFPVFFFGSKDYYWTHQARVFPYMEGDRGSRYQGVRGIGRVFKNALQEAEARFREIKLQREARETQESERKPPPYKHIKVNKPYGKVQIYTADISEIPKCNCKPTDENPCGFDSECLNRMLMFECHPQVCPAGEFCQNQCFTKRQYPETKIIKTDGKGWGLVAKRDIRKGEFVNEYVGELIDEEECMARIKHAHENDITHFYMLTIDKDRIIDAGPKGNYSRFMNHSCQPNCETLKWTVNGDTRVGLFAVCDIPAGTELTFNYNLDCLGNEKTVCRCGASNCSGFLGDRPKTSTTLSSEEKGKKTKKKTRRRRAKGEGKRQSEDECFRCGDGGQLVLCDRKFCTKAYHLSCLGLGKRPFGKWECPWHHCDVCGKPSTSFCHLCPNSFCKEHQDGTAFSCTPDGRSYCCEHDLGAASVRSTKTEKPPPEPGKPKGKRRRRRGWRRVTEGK

Row | SMILES | IC50 [1] [nM] | IC50 (NSD2 [1-1365]; read-out: NSD2 IC50) [nM] | IC50 [2] [nM] | IC50 (NSD2 [1-1365]; NSD2 IC50) [nM]
1 | Nc1ncnc2c1ncn2Cc1cc(-c2ccc(F)c(F)c2)ncc1N1CCC[C@](N)(c2cccc(CF)n2)C1 [Example 226, (R)-9-((5-(3-amino-3-(6-(fluoromethyl)pyridin-2-yl)piperidin-1-yl)-2-(3,4-difluorophenyl)pyridin-4-yl)methyl)-9H-purin-6-amine] | 169 | 1 to 10 | 66.8 | –
2 | Nc1ncnc2c1ncn2Cc1cc(-c2ccc(F)c(F)c2)ncc1N1CCC[C@](N)(c2cccc(C(F)F)n2)C1 [Example 227, (R)-9-((5-(3-amino-3-(6-(difluoromethyl)pyridin-2-yl)piperidin-1-yl)-2-(3,4-difluorophenyl)pyridin-4-yl)methyl)-9H-purin-6-amine] | 302 | 10 to 1000 | 133 | –
3 | Cc1ccc(-c2cc(Cn3cnc4c(N)ncnc43)c(N3CCCC(N)(c4cccc(Cl)n4)C3)cn2)cn1 (stereo not drawn) [Example 229, 9-((5-(3-amino-3-(6-chloropyridin-2-yl)piperidin-1-yl)-6′-methyl-[2,3′-bipyridin]-4-yl)methyl)-9H-purin-6-amine] | 7490 | 10 to 1000 | 1970 | –
4 | COc1ccc(Cl)nc1[C@@]1(N)CCCN(c2cnc(-c3ccc(F)c(F)c3)cc2Cn2cnc3c(N)ncnc32)C1 [Example 230, (R)-9-((5-(3-amino-3-(6-chloro-3-methoxypyridin-2-yl)piperidin-1-yl)-2-(3,4-difluorophenyl)pyridin-4-yl)methyl)-9H-purin-6-amine] | 9980 | 10 to 1000 | 1650 | –
5 | COc1ncc(-c2cc(Cn3cnc4c(N)ncnc43)c(N3CCC[C@](N)(c4cccc(Cl)n4)C3)cn2)cc1F [Example 231, (R)-9-((5-(3-amino-3-(6-chloropyridin-2-yl)piperidin-1-yl)-5′-fluoro-6′-methoxy-[2,3′-bipyridin]-4-yl)methyl)-9H-purin-6-amine] | 7440 | 10 to 1000 | 2150 | –
6 | Cc1cccc([C@@]2(N)CCCN(c3cnc(-c4ccc(F)c(F)c4)cc3Cn3cnc4c(N)ncnc43)C2)[n+]1[O-] [Example 232, (R)-2-(3-amino-1-(4-((6-amino-9H-purin-9-yl)methyl)-6-(3,4-difluorophenyl)pyridin-3-yl)piperidin-3-yl)-6-methylpyridine 1-oxide] | 7650 | 10 to 1000 | 1470 | –
7 | COc1c(F)cc(-c2cc(Cn3cnc4c(N)ncnc43)c(N3CCC[C@](N)(c4cccc(Cl)n4)C3)cn2)cc1F [Example 233, (R)-9-((5-(3-amino-3-(6-chloropyridin-2-yl)piperidin-1-yl)-2-(3,5-difluoro-4-methoxyphenyl)pyridin-4-yl)methyl)-9H-purin-6-amine] | 1100 | 1 to 10 | 341 | –
8 | CC(O)c1ccc([C@@]2(N)CCCN(c3cnc(-c4ccc(F)c(F)c4)cc3Cn3cnc4c(N)ncnc43)C2)nc1Cl (stereo partly drawn) [Example 234, 1-(6-((R)-3-amino-1-(4-((6-amino-9H-purin-9-yl)methyl)-6-(3,4-difluorophenyl)pyridin-3-yl)piperidin-3-yl)-2-chloropyridin-3-yl)ethan-1-ol] | 5990 | 10 to 1000 | 1620 | –
9 | COc1cc(F)nc([C@@]2(N)CCCN(c3cnc(-c4ccc(F)c(F)c4)cc3Cn3cnc4c(N)ncnc43)C2)c1 [Example 235, (R)-9-((5-(3-amino-3-(6-fluoro-4-methoxypyridin-2-yl)piperidin-1-yl)-2-(3,4-difluorophenyl)pyridin-4-yl)methyl)-9H-purin-6-amine] | 970 | 1 to 10 | 705 | –
10 | COc1cc(F)c(-c2cc(Cn3cnc4c(N)ncnc43)c(N3CCC[C@](N)(c4cccc(Cl)n4)C3)cn2)c(F)c1 [Example 236, (R)-9-((5-(3-amino-3-(6-chloropyridin-2-yl)piperidin-1-yl)-2-(2,6-difluoro-4-methoxyphenyl)pyridin-4-yl)methyl)-9H-purin-6-amine] | 6300 | 10 to 1000 | 1390 | –
11 | Nc1ncnc2c1ncn2Cc1cc(-c2cc(F)c(F)cc2F)ncc1N1CCC[C@](N)(c2cccc(Cl)n2)C1 [Example 237] | 2020 | 10 to 1000 | 825 | –
12 | Nc1ncnc2c1ncn2Cc1cc(-c2ccc(F)cc2F)ncc1N1CCC[C@](N)(c2cccc(Cl)n2)C1 [Example 238, (R)-9-((5-(3-amino-3-(6-chloropyridin-2-yl)piperidin-1-yl)-2-(2,4-difluorophenyl)pyridin-4-yl)methyl)-9H-purin-6-amine] | 1340 | 1 to 10 | 588 | –
13 | Nc1ncnc2c1ncn2Cc1cc(-c2ccc(F)c(F)c2)ncc1N1CCC[C@](N)(c2nc(F)ccc2O)C1 [Example 239, (R)-2-(3-amino-1-(4-((6-amino-9H-purin-9-yl)methyl)-6-(3,4-difluorophenyl)pyridin-3-yl)piperidin-3-yl)-6-fluoropyridin-3-ol] | 1540 | 1 to 10 | 353 | –
14 | Nc1ncnc2c1ncn2Cc1cc(-c2cnc(F)c(F)c2)ncc1N1CCCC(N)(c2cccc(Cl)n2)C1 (stereo not drawn) [Example 240, 9-((5-(3-amino-3-(6-chloropyridin-2-yl)piperidin-1-yl)-5′,6′-difluoro-[2,3′-bipyridin]-4-yl)methyl)-9H-purin-6-amine] | 5930 | 10 to 1000 | 821 | –
15 | COc1ccc(-c2cc(Cn3cnc4c(N)ncnc43)c(N3CCC[C@](N)(c4ccc(F)c(C)n4)C3)cn2)cc1 [Example 241, (R)-9-((5-(3-amino-3-(5-fluoro-6-methylpyridin-2-yl)piperidin-1-yl)-2-(4-methoxyphenyl)pyridin-4-yl)methyl)-9H-purin-6-amine] | 4080 | 10 to 1000 | 1190 | –
16 | COc1ccc(-c2cc(Cn3cnc4c(N)ncnc43)c(N3CCC[C@](N)(c4cccc(Cl)n4)C3)cn2)c(F)c1F [Example 242, (R)-9-((5-(3-amino-3-(6-chloropyridin-2-yl)piperidin-1-yl)-2-(2,3-difluoro-4-methoxyphenyl)pyridin-4-yl)methyl)-9H-purin-6-amine] | 8190 | 10 to 1000 | 2710 | –
17 | COc1cnc(-c2cc(Cn3cnc4c(N)ncnc43)c(N3CCC[C@](N)(c4cccc(Cl)n4)C3)cn2)cc1F [Example 243, (R)-9-((5-(3-amino-3-(6-chloropyridin-2-yl)piperidin-1-yl)-4′-fluoro-5′-methoxy-[2,2′-bipyridin]-4-yl)methyl)-9H-purin-6-amine] | 2440 | 1 to 10 | 541 | –
18 | Nc1ncnc2c1ncn2Cc1cc(-c2cnc(O)c(F)c2)ncc1N1CCCC(N)(c2cccc(Cl)n2)C1 (stereo not drawn) [Example 244, 5-(3-amino-3-(6-chloropyridin-2-yl)piperidin-1-yl)-4-((6-amino-9H-purin-9-yl)methyl)-5′-fluoro-[2,3′-bipyridin]-6′-ol] | 33300 | 10 to 1000 | 12500 | –
19 | CCc1nccc([C@@]2(N)CCCN(c3cnc(-c4ccc(F)c(F)c4)cc3Cn3cnc4c(N)ncnc43)C2)n1 [Example 251, (R)-9-((5-(3-amino-3-(2-ethylpyrimidin-4-yl)piperidin-1-yl)-2-(3,4-difluorophenyl)pyridin-4-yl)methyl)-9H-purin-6-amine] | 1520 | 10 to 1000 | 440 | –
20 | Nc1ncnc2c1ncn2Cc1cc(-c2ccc(F)c(F)c2)ncc1N1CCC[C@](N)(c2ccc[nH]c2=O)C1 [Example 272, (S)-3-(3-amino-1-(4-((6-amino-9H-purin-9-yl)methyl)-6-(3,4-difluorophenyl)pyridin-3-yl)piperidin-3-yl)pyridin-2(1H)-one] | 10500 | 1 to 10 | 1750 | –
21 | Cn1ncc([C@@]2(N)CCCN(c3cnc(-c4ccc(F)c(F)c4)cc3Cn3cnc4c(N)ncnc43)C2)n1 [Example 283, (R)-9-((5-(3-amino-3-(2-methyl-2H-1,2,3-triazol-4-yl)piperidin-1-yl)-2-(3,4-difluorophenyl)pyridin-4-yl)methyl)-9H-purin-6-amine] | 1020 | – | 110 | 1 to 10
22 | Cc1cc([C@@]2(N)CCCN(c3cnc(-c4ccc(F)c(F)c4)cc3Cn3cnc4c(N)ncnc43)C2)no1 [Example 284, (R)-9-((5-(3-amino-3-(5-methylisoxazol-3-yl)piperidin-1-yl)-2-(3,4-difluorophenyl)pyridin-4-yl)methyl)-9H-purin-6-amine] | 254 | 1 to 10 | 111 | –
23 | Nc1ncnc2c1ncn2Cc1cc(-c2ccc(F)c(F)c2)ncc1N1CCC[C@](N)([C@@H](F)CO)C1 [Example 285, (R)-2-((R)-3-amino-1-(4-((6-amino-9H-purin-9-yl)methyl)-6-(3,4-difluorophenyl)pyridin-3-yl)piperidin-3-yl)-2-fluoroethan-1-ol] | 885 | 1 to 10 | 43.7 | –
24 | Nc1ncnc2c1ncn2Cc1cc(-c2cc(F)c(F)cc2F)ncc1N1CCC[C@](N)([C@@H](F)CO)C1 [Example 286, (R)-2-((R)-3-amino-1-(4-((6-amino-9H-purin-9-yl)methyl)-6-(2,4,5-trifluorophenyl)pyridin-3-yl)piperidin-3-yl)-2-fluoroethan-1-ol] | 655 | 1 to 10 | 5.9 | –

From patent US11420970B1 (NOVARTIS AG, priority 2019, dated 2022)
